Test: xn = mol fraction of the nth substance listed
Conditions: Liquid, Time-dependent Raman spectra, x1 = 0

C [methane] + O
binary diffusion coefficient [m2/s]
Conditions | 273 K | 298 K | 313 K | 353 K | 393 K | 433 K | 473 K
5000 kPa | – | 1.61e-09 | – | 4.85e-09 | 8.59e-09 | – | –
10000 kPa | – | 1.63e-09 | – | 5e-09 | 8.7e-09 | – | –
20000 kPa | 7.02e-10 | 1.64e-09 | 2.39e-09 | 4.98e-09 | 8.68e-09 | 1.25e-08 | 1.71e-08
30000 kPa | – | 1.6e-09 | – | 4.79e-09 | 8.45e-09 | – | –
40000 kPa | – | 1.62e-09 | – | 4.8e-09 | 8.08e-09 | – | –

Reference: the NIST ThermoML archive (doi:10.1016/j.fluid.2013.09.051)
